Like-named read-outs stand apart in the source and are kept apart here. Bounds are passed on as bounds.

One data set has as its system MDA-MB-231 cells. Description: In vitro anti-proliferative activity assay (MTT). Type of data set: cell-based. Particulars: Homo sapiens, 48 h incubation. On the procedure: Cells lines were maintained as monolayers in Dulbecco’s Modified Eagle’s Medium (DMEM) supplemented with 10% FBS, 2 mM L-glutamine, 100 U/ml penicillin and 100 µg/ml streptomycin sulfate. Cells were sub-cultured with trypsine/EDTA solution, counted with haemocytometer and plated onto 96-well plates (5000 cells/well) and left overnight to form a semi-confluent monolayer. […] DMSO (100 µl/well) was added to dissolve the formazan crystals with shaking for 10 min after which the absorbance was read at 590 nm against no cell blanks on a FLuo Star Optima microplate reader (BMG Technologies, Germany). Cell proliferation was calculated comparing the OD values of the DMSO control wells and those of the samples represented as % proliferation to the control.
The in vitro anti-proliferative activity of the newly synthesized spirooxindoles 6a–p was examined against TNBC MDA-MB-231 cells. This assay was performed utilizing the 3–(4,5-dimethylthiazol-2-yl)-2,5-diphenyltetrazolium bromide (MTT) colorimetric assay as described by Mosmann[18]. Adriamycin was included in this assay as a reference drug.

In the next data set the target is T1, EGFR (Homo sapiens, UniProt P00533).
T1 construct: purchased BPS Biosciences 40321
T1 sequence (P00533 25-1210): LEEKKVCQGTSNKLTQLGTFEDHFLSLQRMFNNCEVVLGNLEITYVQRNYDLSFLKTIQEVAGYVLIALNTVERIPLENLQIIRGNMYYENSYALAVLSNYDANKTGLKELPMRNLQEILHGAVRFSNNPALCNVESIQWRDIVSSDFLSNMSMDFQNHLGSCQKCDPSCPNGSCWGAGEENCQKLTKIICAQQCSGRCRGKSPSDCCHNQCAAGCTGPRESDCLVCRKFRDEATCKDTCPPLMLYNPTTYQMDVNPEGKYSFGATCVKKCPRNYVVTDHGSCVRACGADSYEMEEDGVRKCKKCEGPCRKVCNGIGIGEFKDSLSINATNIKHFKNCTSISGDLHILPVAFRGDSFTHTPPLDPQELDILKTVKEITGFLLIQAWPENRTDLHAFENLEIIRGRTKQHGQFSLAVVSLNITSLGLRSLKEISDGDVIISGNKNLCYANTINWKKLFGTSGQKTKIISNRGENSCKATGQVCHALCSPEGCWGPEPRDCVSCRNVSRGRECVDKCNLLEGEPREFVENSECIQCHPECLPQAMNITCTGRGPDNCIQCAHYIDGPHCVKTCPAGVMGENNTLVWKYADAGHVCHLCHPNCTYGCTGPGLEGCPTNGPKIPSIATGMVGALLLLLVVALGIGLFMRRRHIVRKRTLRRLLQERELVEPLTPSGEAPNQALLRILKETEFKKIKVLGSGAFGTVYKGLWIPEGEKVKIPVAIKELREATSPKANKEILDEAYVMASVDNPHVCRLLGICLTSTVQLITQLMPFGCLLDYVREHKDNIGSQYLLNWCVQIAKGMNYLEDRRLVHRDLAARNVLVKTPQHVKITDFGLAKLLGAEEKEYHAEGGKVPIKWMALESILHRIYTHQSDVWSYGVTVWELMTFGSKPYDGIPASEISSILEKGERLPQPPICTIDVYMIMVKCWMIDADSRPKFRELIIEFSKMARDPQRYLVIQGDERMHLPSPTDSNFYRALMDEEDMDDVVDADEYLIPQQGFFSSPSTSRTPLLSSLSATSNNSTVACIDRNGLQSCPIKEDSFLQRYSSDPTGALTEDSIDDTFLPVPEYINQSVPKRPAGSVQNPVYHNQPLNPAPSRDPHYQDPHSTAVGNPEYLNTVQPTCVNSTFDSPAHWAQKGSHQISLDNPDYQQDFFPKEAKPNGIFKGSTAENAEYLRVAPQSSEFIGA
In words: EGFR kinase ELISA assay. Type of data set: biochemical. Particulars: colorimetric ELISA, mean ± SD of three separate experiments. On the procedure:
Percent inhibition was calculated by the comparison of compounds treated to control incubations.
Erlotinib, a clinically used EGFR inhibitor, was taken as the reference drug.
On the technique in general: In an ELISA, binding on a coated surface is turned into a signal by an enzyme label.

A further data set has as its system WI-38 cells. Description: In vitro cytotoxic activity, WI-38 cells (MTT). Type of data set: cell-based, human. The protocol: WI-38 cells ([…]), were obtained from American Type Culture Collection. The cells were propagated in DMEM supplemented with 10% heat-inactivated FBS (Hyclone), 10 μg/ml of insulin (Sigma), and 1% penicillin-streptomycin. All of the other chemicals and reagents were from Sigma, or Invitrogen. Cytotoxicity was determined using MTT assay following a reported procedure.

The test system of data set [1] is MDA-MB-231 cancer cell line. Particulars: cited from earlier work.

The IC50 is the midpoint of a concentration-inhibition curve. On to `COc1cccc2c1C(=O)c1c(O)c3c(c(O)c1C2=O)C[C@@](O)(C(=O)CO)C[C@@H]3O[C@H]1C[C@H](N)[C@H](O)[C@H](C)O1` [Adriamycin, reference compound], for which half-maximal inhibition with MDA-MB-231 cells (IC50) required 0.12 µM.
As usually defined, the melting point is the temperature of the solid-liquid transition. The compound `Cc1ccc(C2=C(C#N)C3(C(=O)Nc4ccccc43)c3c(-c4cccs4)nn(-c4ccccc4)c3N2)cc1` (stereo not drawn) [Compound 6b, 2-Oxo-1'-phenyl-3'-(thiophen-2-yl)-6'-(p-tolyl)-1',7'-dihydrospiro[indoline-3,4'-pyrazolo[3,4-b]pyridine]-5'-carbonitrile] yielded a melting point of 285 to 287 °C. The compound further yielded a half-inhibitory concentration (IC50) in the data set with MDA-MB-231 cells of 29.7 µM.
Consider `COc1ccc(C2=C(C#N)C3(C(=O)Nc4ccccc43)c3c(-c4cccs4)nn(-c4ccccc4)c3N2)cc1` (stereo not drawn) [Compound 6c, 6'-(4-Methoxyphenyl)-2-oxo-1'-phenyl-3'-(thiophen-2-yl)-1',7'-dihydrospiro[indoline-3,4'-pyrazolo[3,4-b]pyridine]-5'-carbonitrile], for which the melting point was 296 to 298 °C. For the same compound, half-maximal inhibition in the data set with MDA-MB-231 cells (IC50) required 37.8 µM.
In turn, `N#CC1=C(c2ccc(Cl)cc2)Nc2c(c(-c3cccs3)nn2-c2ccccc2)C12C(=O)Nc1ccccc12` (stereo not drawn) [Compound 6d, 6'-(4-Chlorophenyl)-2-oxo-1'-phenyl-3'-(thiophen-2-yl)-1',7'-dihydrospiro[indoline-3,4'-pyrazolo[3,4-b]pyridine]-5'-carbonitrile] yielded a melting point of 279 to 281 °C. Half-maximal inhibition in the data set on MDA-MB-231 cells (IC50) required 12 µM. On EGFR, inhibition was half-maximal at 0.36 ± 0.02 µM (IC50).
The compound `Cc1ccc(C2=C(C#N)C3(C(=O)Nc4ccc(Cl)cc43)c3c(-c4cccs4)nn(-c4ccccc4)c3N2)cc1` (stereo not drawn) [Compound 6f, 5-Chloro-2-oxo-1'-phenyl-3'-(thiophen-2-yl)-6'-(p-tolyl)-1',7'-dihydrospiro[indoline-3,4'-pyrazolo[3,4-b]pyridine]-5'-carbonitrile] gave a melting point of 286 to 288 °C. The compound further showed a half-maximal inhibitory concentration (IC50) in the data set with MDA-MB-231 cells of 18.2 µM.
The corresponding values for `COc1ccc(C2=C(C#N)C3(C(=O)Nc4ccc(Cl)cc43)c3c(-c4cccs4)nn(-c4ccccc4)c3N2)cc1` (stereo not drawn) [Compound 6g, 5-Chloro-6'-(4-methoxyphenyl)-2-oxo-1'-phenyl-3'-(thiophen-2-yl)-1',7'-dihydrospiro[indoline-3,4'-pyrazolo[3,4-b]pyridine]-5'-carbonitrile] are > 300 °C and 24.1 µM.
On the same counts, the results for `N#CC1=C(c2ccc(Cl)cc2)Nc2c(c(-c3cccs3)nn2-c2ccccc2)C12C(=O)Nc1ccc(Cl)cc12` (stereo not drawn) [Compound 6h, 5-Chloro-6'-(4-chlorophenyl)-2-oxo-1'-phenyl-3'-(thiophen-2-yl)-1',7'-dihydrospiro[indoline-3,4'-pyrazolo[3,4-b]pyridine]-5'-carbonitrile] are 281 to 283 °C and 16.6 µM.
Take `N#CC1=C(c2ccccc2)Nc2c(c(-c3cccs3)nn2-c2ccccc2)C12C(=O)Nc1ccc(Br)cc12` (stereo not drawn) [Compound 6i, 5-Bromo-2-oxo-1',6'-diphenyl-3'-(thiophen-2-yl)-1',7'-dihydrospiro[indoline-3,4'-pyrazolo[3,4-b]pyridine]-5'-carbonitrile]: the IC50 with MDA-MB-231 cells was 6.7 µM; with WI-38 cells (WI-38, MTT assay, human normal lung fibroblast cell line, read-out: IC50 (µM) WI-38), 39.3 µM; at EGFR it was 0.12 ± 0.01 µM. In addition, the “Selectivity Index” value with WI-38 cells (WI-38 versus MDA-MB-231) is given as 5.9.
For `Cc1ccc(C2=C(C#N)C3(C(=O)Nc4ccc(Br)cc43)c3c(-c4cccs4)nn(-c4ccccc4)c3N2)cc1` (stereo not drawn) [Compound 6j, 5-Bromo-2-oxo-1'-phenyl-3'-(thiophen-2-yl)-6'-(p-tolyl)-1',7'-dihydrospiro[indoline-3,4'-pyrazolo[3,4-b]pyridine]-5'-carbonitrile], the melting point lay within 282 to 284 °C. In the data set with MDA-MB-231 cells, the IC50 was determined as 13.5 µM. The same compound registered an IC50 against EGFR of 0.51 ± 0.04 µM.
The corresponding values for `COc1ccc(C2=C(C#N)C3(C(=O)Nc4ccc(Br)cc43)c3c(-c4cccs4)nn(-c4ccccc4)c3N2)cc1` (stereo not drawn) [Compound 6k, 5-Bromo-6'-(4-methoxyphenyl)-2-oxo-1'-phenyl-3'-(thiophen-2-yl)-1',7'-dihydrospiro[indoline-3,4'-pyrazolo[3,4-b]pyridine]-5'-carbonitrile] are > 300 °C, 12.7 µM and 0.31 ± 0.02 µM.
The compound `N#CC1=C(c2ccc(Cl)cc2)Nc2c(c(-c3cccs3)nn2-c2ccccc2)C12C(=O)Nc1ccc(Br)cc12` (stereo not drawn) [Compound 6l, 5-Bromo-6'-(4-chlorophenyl)-2-oxo-1'-phenyl-3'-(thiophen-2-yl)-1',7'-dihydrospiro[indoline-3,4'-pyrazolo[3,4-b]pyridine]-5'-carbonitrile] returned a melting point of 293 to 294 °C. The same compound gave an IC50 in the data set on MDA-MB-231 cells of 30.6 µM.
The corresponding values for `COc1ccc2c(c1)C1(C(=O)N2)C(C#N)=C(c2ccccc2)Nc2c1c(-c1cccs1)nn2-c1ccccc1` (stereo not drawn) [Compound 6m, 5-Methoxy-2-oxo-1',6'-diphenyl-3'-(thiophen-2-yl)-1',7'-dihydrospiro[indoline-3,4'-pyrazolo[3,4-b]pyridine]-5'-carbonitrile] are 276 to 278 °C and 17.5 µM.
On the same counts, the results for `COc1ccc2c(c1)C1(C(=O)N2)C(C#N)=C(c2ccc(C)cc2)Nc2c1c(-c1cccs1)nn2-c1ccccc1` (stereo not drawn) [Compound 6n, 5-Methoxy-2-oxo-1'-phenyl-3'-(thiophen-2-yl)-6'-(p-tolyl)-1',7'-dihydrospiro[indoline-3,4'-pyrazolo[3,4-b]pyridine]-5'-carbonitrile] are 268 to 269 °C and > 50 µM.
`COc1ccc(C2=C(C#N)C3(C(=O)Nc4ccc(OC)cc43)c3c(-c4cccs4)nn(-c4ccccc4)c3N2)cc1` (stereo not drawn) [Compound 6o, 5-Methoxy-6'-(4-methoxyphenyl)-2-oxo-1'-phenyl-3'-(thiophen-2-yl)-1',7'-dihydrospiro[indoline-3,4'-pyrazolo[3,4-b]pyridine]-5'-carbonitrile]: the melting point lay in the range of 279 to 281 °C. Moreover, in the data set with MDA-MB-231 cells, the IC50 was > 50 µM.
On the same counts, the results for `COc1ccc2c(c1)C1(C(=O)N2)C(C#N)=C(c2ccc(Cl)cc2)Nc2c1c(-c1cccs1)nn2-c1ccccc1` (stereo not drawn) [Compound 6p, 6'-(4-Chlorophenyl)-5-methoxy-2-oxo-1'-phenyl-3'-(thiophen-2-yl)-1',7'-dihydrospiro[indoline-3,4'-pyrazolo[3,4-b]pyridine]-5'-carbonitrile] are 255 to 257 °C and > 50 µM.
On to `CC(C)OC(=O)C1=C(N)OC2=C(C(=O)OC2)C12C(=O)Nc1ccc(Cl)cc12` (stereo not drawn) [compound (i)], for which the IC50 in data set [1] (read-out: IC50, cytotoxic activity against MDA-MB-231) was 11 µM.
With `O=C(c1ccc(OCCN2CCCC2)cc1)C1C(c2ccccc2)C2CSC(c3ccccc3)N2C12C(=O)Nc1ccc(Cl)cc12` (stereo not drawn) [compound (iv)], the IC50 in data set [1] (reported compound of Figure 1, reference not given, read-out: IC50, cytotoxicity against MDA-MB-231) was 4.2 µM.

Values taken from paper PMC6009943, “One-pot three-component synthesis of novel spirooxindoles with potential cytotoxic activity against triple-negative breast cancer MDA-MB-231 cells” (Journal of Enzyme Inhibition and Medicinal Chemistry, 2017).
